Experimental findings from ChEMBL document CHEMBL6071195, “Oxime Linked Doxorubicin Glycoconjugates Improve the Specific Targeting of Glioblastoma in High-Grade Glioma Therapy” (ACS Med Chem Lett, 2024) are described below.

Data set [1] can be described thus: Stability of compound at pH 2 measured after 24 hrs by HPLC analysis. Format: physicochemical. The settings on record: buffer, pH 2, 24 h.
Data set [2] can be described thus: Stability of compound at pH 7.4 incubated for 72 hrs by HPLC analysis. The class given is physicochemical. The settings on record: buffer, pH 7.4, 72 h.
Data set [3] relates to T98G. As to the kind of experiment: Cytotoxicity against human T98G cells assessed as reduction in cell viability at 10 uM glucose deprived for 8 hrs followed by compound addition and measured after 24 hrs by MTT assay relative to control. The class given is functional, cell-based. On the technique in general: Tetrazolium assays rely on reduction of a dye to a coloured formazan, in cell work by metabolically active cells.

Data set [4] in a line: Drug uptake in human A-172 cells assessed as red appearance incubated for 24 hrs by imaging analysis. Format: ADME, cell-based. The settings on record: a 172, 24 h.
Data set [5] relates to DNA. As to the kind of experiment: Binding affinity to DNA (unknown origin) assessed as Stem-Volmer quenching constant by fluorescence spectral analysis. Format: nucleic-acid assay.
Data set [6] is described as follows: Stability of compound at pH 5.0 incubated for 72 hrs by HPLC analysis. Format: physicochemical. The settings on record: buffer, pH 5, 72 h.
The nature of data set [7]: Drug uptake in human T98G cells assessed as red appearance incubated for 24 hrs by imaging analysis. Format: ADME, cell-based.
Data set [8] relates to T98G. As to the kind of experiment: Cytotoxicity against human T98G cells assessed as reduction in cell viability at 10 uM glucose deprived for 8 hrs followed by compound addition and measured after 48 hrs by MTT assay relative to control. Format: functional, cell-based.
The nature of data set [9]: Cytotoxicity against human T98G cells co-cultured with MDCK-II cells transfected with human P-gp assessed as cell viability at 100 uM pretreated for 2 hrs followed by […] cell removal and measured after 48 hrs by MTT assay relative to control. The settings on record: time 50 hrs, read-out: Activity. The class given is functional.
Data set [10] is described as follows: Drug uptake in human A-172 cells at 10 uM incubated for 8 hrs by DAPI staining based immunofluorescence analysis. Format: ADME, cell-based. The settings on record: a 172, 8 h.
For data set [11], the system named is A 172. As to the kind of experiment: Induction of apoptosis in human A-172 cells assessed as apoptotic rate at 10 uM incubated for 24 hrs by TUNEL assay relative to control. The class given is functional.
Data set [12] in a line: Drug uptake in human T98G cells at 10 uM incubated for 8 hrs by DAPI staining based immunofluorescence analysis. Format: ADME, cell-based.
A short description of data set [13]: Drug uptake in human SVG p12 cells at 10 uM incubated for 8 hrs by DAPI staining based immunofluorescence analysis. The class given is ADME, cell-based. The settings on record: svg p12, 8 h.
Data set [14] has as its system A 172. The data set is described as follows: Cytotoxicity against human A-172 cells assessed as reduction in cell viability at 10 uM glucose deprived for 8 hrs followed by compound addition and measured after 24 to 48 hrs by MTT assay relative to control. The class given is functional, cell-based. The following applies: time 24-48 hrs.
Data set [15] concerns T98G. As to the kind of experiment: Induction of apoptosis in human T98G cells assessed as apoptotic rate at 10 uM incubated for 24 hrs by TUNEL assay relative to control. The class given is functional.
In data set [16] the test system is DNA. As to the kind of experiment: Binding affinity to DNA (unknown origin) assessed as intercalative binding constant (Ka) by UV-Vis absorption spectra. Format: nucleic-acid assay.
The subject of data set [17] is T98G. The data set is described as follows: Induction of DNA damage in human T98G cells at 10 uM incubated for 24 hrs by TUNEL assay. The class given is functional, cell-based.
Data set [18] relates to DNA. As to the kind of experiment: Binding affinity to DNA (unknown origin) assessed as intercalation by measuring hypsochromic shift at 100 uM by UV-Vis absorption spectra. Format: nucleic-acid assay.
Data set [19] is described as follows: Stability of compound in T98G GBM cell culture media at pH 6.8 measured after 72 hrs by HPLC analysis. The class given is physicochemical. The following applies: pH 6.8, 72 h.
The subject of data set [20] is A 172. The data set is described as follows: Cytotoxicity against human A-172 cells assessed as reduction in cell viability at 10 uM incubated for 24 to 48 hrs by MTT assay. The class given is functional, cell-based. The following applies: time 24-48 hrs.
Data set [21] deals with A 172. As to the kind of experiment: Cytotoxicity against human A-172 cells co-cultured with MDCK-II cells transfected with human P-gp assessed as cell viability at 100 uM pretreated for 2 hrs followed by […] cell removal and measured after 48 hrs by MTT assay relative to control. Format: functional. The settings on record: time 50 hrs, read-out: Activity.
Data set [22] can be described thus: Stability of compound at pH 2 assessed as drug hydrolysis measured after 72 hrs by HPLC analysis. The class given is physicochemical. The following applies: buffer, read-out: Drug degradation.
A short description of data set [23]: Stability of compound at pH 3.5 incubated for 72 hrs by HPLC analysis. The class given is physicochemical. The following applies: buffer, pH 3.5, 72 h.
The subject of data set [24] is A 172. The data set is described as follows: Induction of DNA damage in human A-172 cells at 10 uM incubated for 24 hrs by TUNEL assay. Format: functional, cell-based.
Data set [25] relates to T98G. The data set is described as follows: Cytotoxicity against human T98G cells assessed as cell viability at 10 uM incubated for 24 hrs by MTT assay relative to control. Format: functional.
Data set [26] in a line: Cytotoxicity against human SVG p12 cells assessed as reduction in cell viability at 10 uM incubated for 24 to 48 hrs by MTT assay. The class given is toxicity, cell-based. The following applies: svg p12, 10 µM, time 24-48 hrs.
The test system of data set [27] is T98G. As to the kind of experiment: Cytotoxicity against human T98G cells assessed as reduction in cell viability at 10 uM incubated for 48 hrs by MTT assay. The class given is functional, cell-based.

The source made the active and inactive calls. The calls are words filed in the database; no cut-off is given here.

`COc1cccc2c1C(=O)c1c(O)c3c(c(O)c1C2=O)C[C@@](O)(/C(CO)=N\OCC(=O)NC[C@H]1O[C@H](OC)[C@H](O)[C@@H](O)[C@@H]1O)C[C@@H]3O[C@H]1C[C@H](N)[C@H](O)[C@H](C)O1`: the Stability entry in data set [1] was “Unstable”; in data set [2], “Stable”; in data set [6], “Stable”; in [19], “Stable”; in data set [23] it was “Stable”. The result in the data set on T98G [3], in the data set with T98G [8], in the data set with T98G [15] and in the data set on T98G [17] was inactive. In addition, the Drug uptake entry in [4], in data set [7], in data set [10], in [12] and in data set [13] was “Not Active” in each case. The KSV in the data set on DNA [5] is 4.4 10^5/M. Besides, the viability at 100 µM in data set [9] is 76%; in the data set on A 172 [21], 129%. Also, the Activity with A 172 [11] was 32%. In addition, the outcome with A 172 [14], in the data set with DNA [18] and with A 172 [20] was Active. The K in the data set on DNA [16] was 3.5 10^5/M. In addition, the degraded at 72 h in data set [22] came out at 46%.
For the compound `COc1cccc2c1C(=O)c1c(O)c3c(c(O)c1C2=O)C[C@@](O)(C(=O)CO)C[C@@H]3O[C@H]1C[C@H](N)[C@H](O)[C@H](C)O1` [DOXORUBICIN], the result with T98G [3] and in the data set with T98G [25] was inactive. The KSV in the data set with DNA [5] was 3.1 10^5/M. Also, the result in the data set on A 172 [24], with T98G [8], in the data set on A 172 [14], in the data set on T98G [17] and in the data set with A 172 [20] was Active. Besides, the Activity result in data set [26] is recorded as “Toxic”; with A 172 [11], 102%; with T98G [15] it was 122%. Besides, the viability at 100 µM in data set [9] is 73%; in the data set with A 172 [21], 94%. The Drug uptake entry in data set [10], in [12] and in data set [13] was “Active” each time. In addition, the K in the data set on DNA [16] is 3.3 10^5/M.
For `COc1cccc2c1C(=O)c1c(O)c3c(c(O)c1C2=O)C[C@@](O)(/C(CO)=N\OCC(=O)NCc1cn(C[C@H]2O[C@H](OC)[C@H](O)[C@@H](O)[C@@H]2O)nn1)C[C@@H]3O[C@H]1C[C@H](N)[C@H](O)[C@H](C)O1`, the Stability result is on record as “Unstable” in data set [1]; “Stable” in data set [2]; “Stable” in [6]; “Stable” in data set [19]; “Stable” in data set [23]. Besides, the outcome with T98G [3] was inactive. In addition, the Drug uptake entry in data set [4], in data set [7], in data set [10], in data set [12] and in [13] was “Active” each time. Also, in the data set on DNA [5], the KSV was 3.5 10^5/M. Also, the outcome in the data set with A 172 [24], in the data set on T98G [8], with T98G [27], in the data set on A 172 [14], in the data set with T98G [17] and in the data set on DNA [18] was Active. The outcome in the data set on A 172 [20] was Active. Further, in the data set on T98G [25] (read-out: Activity), the viability at 10 µM worked out at 80%. Besides, the results for the Activity entry (in data set [26]; with A 172 [11]; in the data set on T98G [15]) were “Non-Toxic”, 202% and 116%, respectively. The viability at 100 µM in [9] was found to be 62%; in the data set on A 172 [21], 58%. The K in the data set with DNA [16] was 2.7 10^5/M. Also, the degraded at 72 h in data set [22] was determined as 49%.
